Reference: patent US20240158386A1, “BENZOXAZOLONE INHIBITORS OF INFLAMMASOMES” (ICAHN SCHOOL OF MEDICINE AT MOUNT SINAI, priority 2021, published 2024)

How the values were obtained:
NLRC4 inflammasome = target: T1, NLRC4 inflammasome (Mus musculus, UniProt Q3UP24); test: NLRC4 inflammasome activation assay: IL-1β release, microglia from NLRP3 KO mice, LPS and flagellin; assay type: cell-based; conditions: FIG. 3A
T1 construct: endogenous in cells; host or cells: primary microglia from NLRP3 KO mice
Procedure: AIM2, NLRP7, and NLRC4 inflammasomes activation assays. […] AIM2 inflammasome activation was induced through the addition of 100 ng/ml LPS for 2 hours, followed by transfection of 1 μg poly(dA:dT) using Lipofectamine 2000 during 2 hours, following the manufacturer recommendations. NLRC4 was activated by treatment with 150 ng/ml LPS for 2 hours, before transfection of 1 μg flagellin during 2 hours, using lipofectamine 2000 as transfection reagent. Negative and positive controls were pre-treated with the same DMSO percentage as cells treated with the inhibitors. Negative controls were kept untreated after DMSO addition, while LPS-poly(dA:dT) or LPS-flagellin was added to positive controls for AIM2, and NLRC4 activation, respectively. For activation of the NLRP7 inflammasome different conditions were assessed: treatment of WT microglia cultures with 400 ng/ml fibroblast-stimulating lipopeptide-1 (fsl-1) for 7 hours, priming with 150 ng/ml LPS for 1 hour and treatment with 400 ng/ml fsl-1 for 7 hours, and priming with 150 ng/ml LPS and transfection of 400 ng/ml fsl-1 with lipofectamine. MCC950 was used as a negative control for NLRC4 and AIM-2 inhibition. Cells were pretreated with 5 μM MCC950 before LPS addition, and 2 hours later the NLRC4 and AIM-2 activation was induced through addition of their specific activators. Cell supernatants were collected for IL-1β measurement.
Cytokine quantification. IL-1β in cell supernatants and brain tissue samples—after the different treatment groups—was quantified using the Mouse IL-1 beta/IL-1F2 DuoSet ELISA kit (R&D systems), IL-6 in cell culture supernatant was measured through the Mouse IL-6 ELISA kit (ThermoFisher), TNF-α in cell culture supernatants was determined using the Mouse TNF-alpha DuoSet ELISA (R*D systems), and IL-18 in brain tissue was measured through the IL-18 Mouse ELISA Kit (Invitrogen) following the manufacturers' recommended protocol. IL-1β precursor and cleaved IL-1β in the FC of mice treated with vehicles, LPS, or C77-LPS was assessed by western blot. All samples were run in technical duplicates.

[1] = system: inflammasome priming (NLRP3, caspase-1, IL-1β, TNF-α, IL6, NLRC4 expression); test: In-vivo assessment of C77: RNA expression of inflammatory genes in mouse brain; design: species or system WT C57BL/6J mice; conditions: 50 mg/kg 2 hours before LPS administration
Procedure: (§1) Gene expression analysis. RNA was isolated from frontal cortex from C57BL/6J mice or from THP1 human cultures using the RNeasy Mini Kit (QIAGEN, Hilden, Germany), following the recommendations of the manufacturer. RNA concentration was determined, and cDNA was synthesized using the High-Capacity cDNA Reverse Transcription Kit with RNase Inhibitor (applied biosystems™). The expression levels of inflammatory genes—NLRP3, caspase-1, IL-1β, TNF-α, NLRC4, IL-18, and IL6—were determined in 4 replicates through PowerUp SYBER Green Master Mix (Thermofisher) using an ABI PRISM […] Sequence Detection System. Hypoxanthine phosphoribosyltransferase (HPRT) was used as an internal control in samples from mouse brains, and GAPDH in the case of THP1 lysates. Gene expression levels were normalized to control samples (mice or THP1 cells treated with PBS).
Animals used in in-vivo assessments. WT C57BL/6J mice (stock #000664) were obtained from The Jackson Laboratory. Mice were housed in groups of five animals per cage on a 12:12 hours light/dark cycle. Water and food were provided ad libitum. 8-10 weeks males were used for experiments. All procedures were approved by the Institutional Animal Care and use Committee of the Icahn School of Medicine at Mount Sinai.
In-vivo assessment of C77. The ability of C77 to inhibit NLRP3 in-vivo was evaluated using WT C57BL/6J mice. […]

[2] = system: NLRP3, caspase-1, IL-1β, IL-6, IL-8, and TNF-α gene expression; test: Gene expression analysis in cell cultures (FIG. 3C); assay type: cell-based, human
Procedure: as §1

microglia cultures = test: Cell viability assay (CytoTox 96 cytotoxicity); assay type: cell-based, murine
Procedure: NLRP3 inflammasome activation assay. Primary microglia cultures were incubated with the compounds that inhibited IL-1β production in THP1 macrophages. Cells pretreated with 100 μM of the compounds—or with the same DMSO volume, in the case of control samples—were primed with 400 ng/ml LPS for 3 hours, and activated with 4.5 mM ATP for 45 minutes or […] nigericin for 1 hour. Dose-response curves were conducted by incubating microglia cultures with different concentrations of the selected compounds, ranging from 0.001 to 100 μM, 1 hour before NLRP3 activation with LPS and ATP. Supernatants were collected for IL-1β and toxicity assessments.
Cell viability assays. The cytotoxic effect of the compounds identified by in-vitro screening was assayed with the Cyto Tox 96® NonRadioactive Cytotoxicity Assay (Promega), following the recommendations of the manufacturer.

[3] = target: T2, Human recombinant NLRP3 protein (Homo sapiens, UniProt Q96P20); test: Inhibition of the NLRP3 ATPase activity (cell-free, ADP-Glo); assay type: biochemical; conditions: isolated protein, 10 μM ATP
T2 construct: purchased BPS Bioscience, San Diego CA
Procedure: Inhibition of the NLRP3 ATPase activity. The efficacy of C77 to inhibit ATP hydrolysis by NLRP3 was directly assayed using a cell-free assay. Human recombinant NLRP3 protein (BPS Bioscience, San Diego CA) was incubated at 37° C. with different concentrations of C77 for 20 min, as previously described (Cocco, M., et al. (2017) Development of an Acrylate Derivative Targeting the NLRP3 Inflammasome for the Treatment of Inflammatory Bowel Disease. J. Med. Chem. 60, 3656-3671). 10 μM ultrapure ATP was then added, and reaction mixtures were further incubated for 45 min. ATP conversion into ADP was determined using the ADP-Glo Kinase Assay (Promega), following the recommendations of the manufacturer, in a SpectraMax i3x Multimode Detection Platform.

T2 sequence (Q96P20 whole entry): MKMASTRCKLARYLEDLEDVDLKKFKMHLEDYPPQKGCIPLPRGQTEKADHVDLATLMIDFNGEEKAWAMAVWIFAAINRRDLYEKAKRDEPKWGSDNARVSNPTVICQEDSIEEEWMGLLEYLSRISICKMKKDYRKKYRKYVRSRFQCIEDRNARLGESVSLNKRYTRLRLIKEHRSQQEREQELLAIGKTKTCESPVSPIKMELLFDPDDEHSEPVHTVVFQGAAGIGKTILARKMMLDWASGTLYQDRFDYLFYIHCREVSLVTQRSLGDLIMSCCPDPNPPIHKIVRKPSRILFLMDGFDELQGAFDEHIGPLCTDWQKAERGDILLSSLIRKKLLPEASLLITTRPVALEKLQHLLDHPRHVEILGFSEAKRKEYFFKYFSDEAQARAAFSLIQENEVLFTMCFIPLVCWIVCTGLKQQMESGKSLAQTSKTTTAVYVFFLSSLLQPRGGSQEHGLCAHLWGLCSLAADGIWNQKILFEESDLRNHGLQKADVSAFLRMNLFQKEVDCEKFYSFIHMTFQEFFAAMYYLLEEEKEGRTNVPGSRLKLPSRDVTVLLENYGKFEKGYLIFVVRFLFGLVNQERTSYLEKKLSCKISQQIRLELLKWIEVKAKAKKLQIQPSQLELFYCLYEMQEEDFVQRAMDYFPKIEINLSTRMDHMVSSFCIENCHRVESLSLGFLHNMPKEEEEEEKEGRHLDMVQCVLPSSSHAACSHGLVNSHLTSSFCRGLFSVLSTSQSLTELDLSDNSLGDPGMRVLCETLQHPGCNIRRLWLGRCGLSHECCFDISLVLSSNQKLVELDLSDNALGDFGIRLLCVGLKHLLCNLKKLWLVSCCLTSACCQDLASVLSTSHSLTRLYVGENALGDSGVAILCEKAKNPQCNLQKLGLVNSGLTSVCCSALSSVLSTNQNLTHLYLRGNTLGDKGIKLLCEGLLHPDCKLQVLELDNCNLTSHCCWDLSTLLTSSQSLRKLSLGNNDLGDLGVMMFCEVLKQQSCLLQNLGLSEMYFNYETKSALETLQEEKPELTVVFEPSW
T1 sequence (Q3UP24 whole entry): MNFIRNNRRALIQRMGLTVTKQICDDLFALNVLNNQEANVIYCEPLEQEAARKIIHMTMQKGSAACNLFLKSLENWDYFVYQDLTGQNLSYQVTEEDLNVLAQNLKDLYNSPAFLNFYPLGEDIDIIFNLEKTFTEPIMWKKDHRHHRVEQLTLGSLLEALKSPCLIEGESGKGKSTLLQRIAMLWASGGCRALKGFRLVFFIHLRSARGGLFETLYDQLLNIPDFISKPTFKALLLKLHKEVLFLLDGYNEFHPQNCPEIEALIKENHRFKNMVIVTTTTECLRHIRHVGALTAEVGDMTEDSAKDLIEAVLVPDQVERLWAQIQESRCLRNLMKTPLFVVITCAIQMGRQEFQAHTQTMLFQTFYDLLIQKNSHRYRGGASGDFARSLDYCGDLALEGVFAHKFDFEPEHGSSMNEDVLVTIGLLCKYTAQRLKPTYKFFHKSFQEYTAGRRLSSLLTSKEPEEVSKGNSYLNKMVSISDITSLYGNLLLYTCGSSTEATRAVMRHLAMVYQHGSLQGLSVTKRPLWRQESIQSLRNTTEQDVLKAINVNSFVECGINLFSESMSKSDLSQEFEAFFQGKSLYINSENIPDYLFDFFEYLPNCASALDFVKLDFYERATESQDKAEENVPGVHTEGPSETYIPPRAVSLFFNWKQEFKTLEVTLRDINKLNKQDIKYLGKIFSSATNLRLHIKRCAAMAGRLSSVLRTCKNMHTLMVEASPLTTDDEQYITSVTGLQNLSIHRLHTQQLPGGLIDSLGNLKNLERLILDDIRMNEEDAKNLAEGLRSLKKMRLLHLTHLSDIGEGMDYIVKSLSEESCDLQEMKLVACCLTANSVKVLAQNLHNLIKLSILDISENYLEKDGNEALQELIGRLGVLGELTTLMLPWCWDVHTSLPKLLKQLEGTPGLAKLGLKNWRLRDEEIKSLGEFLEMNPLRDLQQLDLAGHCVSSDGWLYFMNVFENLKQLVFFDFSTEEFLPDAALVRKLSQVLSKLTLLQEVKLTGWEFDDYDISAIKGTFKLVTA

## O=C(Cn1c(=O)oc2ccccc21)NCc1cncc(-c2ccsc2)c1 [Compound C77]
NLRC4 inflammasome
  IC50: 4150 ± 1650 nM
[1]
  overexpression of inflammatory genes (NLRP3, IL1β, TNF-α, IL6) in mouse brain: did not reduce the overexpression of these genes
[2]
  expression of caspase-1: slightly reduced the expression of caspase-1
  mRNA levels of IL-6, IL-8, or TNF-α: did not modify the mRNA levels
  transcriptional priming of NLRP3 or IL-1β: did not affect the transcriptional priming
Microglia cultures; 50 μM
  toxicity on microglia cultures: significantly reduced the viability of the culture
Microglia cultures; concentrations lower than 50 μM
  toxicity on microglia cultures: did not show significant toxicity levels
[3]
  concentrations with statistically significant inhibition of NLRP3 ATPase activity: ≥ 10 nM
[3]; nonlinear fit
  IC50: 40 nM
